From patent US4959368A, “Therapeutic agent for neurological diseases” (Mitsui Petrochemical Industries Ltd., priority 1986, dated 1990) come the findings set out here.

The LD50 is the dose expected to kill half of the subjects tested.

Molecules are shown by their SMILES.

One data set has as its system mice. Kind of data set: Acute toxicity, mouse. The class given is in vivo. To be noted: 24 hours. The procedure: (§1) The acute toxicity of the compounds of the invention was examined by the following method.
(§2) Male ddy-strain 5-week old mice and male Wistar-strain 8 week old rats, five per group, were used as experimental animals. Each of the compounds was dissolved in saline and administered perorally, and the toxicity of the compound was assessed 24 hours after the administration.

A further data set can be described thus: Acute toxicity, mouse. The class given is in vivo. Particulars: in vivo, po, Table 6, p.o., read-out: Presumed LD50. The procedure: as §1, §2
Data set [1] relates to human neuroblastoma cell line GOTO. Kind of data set: Activity on neuroblastoma cell line GOTO (cell number, number and length of neurites). Format: cell-based. Particulars: for Number of cells: control 3.17. The procedure:
The biological activities in vitro of the compounds of formula (I) on cells of the nervous system were tested. The cells tested were human neuroblastoma cell line GOTO [see Sekiguchi, M., Oota, T., Sakakibara, K., Inui, N. & Fujii, G., Japan. J. Exp. Med., 49, 67-83 (1979)], and neuroblastoma cell line NB-1 [see Miyake, S., Shimo, Y., Kitamura, T., Nojyo, Y., Nakamura, T., Imkashuku, S. and Abe, T., The Autonomic Nervous System, 10, 115-120 (1973)], and mouse neuroblastoma cell line neuro-2a (Dainippon Pharmaceutical Co., Ltd.) which have been established as the cells of the nervous system. The above neuve cells were grown in an incubator at 37° C. in the presence of 5% carbon dioxide gas exponentially, and then cultivated for a certain period of time together with the compounds of formula (I).
The effect of the compounds of this invention on neuroblastoma cells was examined by the following method.
A culture medium [composed of 45% of RPMI 1640 medium, 45% modified Eagle's medium (MEM) and 10% of fetal calf serum (FCS) and containing penicillin G sodium (100 units/ml) and streptomycin sulfate (100 microgram/ml)] containing neurobalstoma cell line GOTO in the logarithmic growth period was poured in an amount of 2 ml each into polystyrene dishes (35 mm; made by Corning Co.) so that the cell concentration was 2 to 6×10^4 cells per dish, and the cells were cultured for 1 to 2 days in a carbon dioxide gas incubator containing 5% of carbon dioxide gas in air at 37° C. Then, the culture fluid was removed, and 2 ml of a fresh serum-free culture fluid (consisting of 50% of RPMI medium and 50% of MEM medium and containing penicillin G sodium and streptomycin sulfate in the same amounts as above) was added. At the same time, a presterilized PBS solution (phosphate buffered saline) of each of the test compounds in various concentrations was added to each of the dishes. After culturing for 24 hours, the number of living cells was counted. Furthermore, the culture was photographed, and from the photos, the number and length of neurites per cell were measured. The numer of living cells was counted for 3 to 6 dishes by resistance to staining with erythrosine dye. The number and length of the neurites were measured with regard to 6 photos (more than 200 cells per photo).

For data set [2], the system named is mouse neuroblastoma cell line neuro-2a. Kind of data set: Activity on neuro-2a, cells with outgrown neurites. Format: cell-based. The essentials:
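Mouse neuro-2a cells in DMEM with FCS exposed to compounds for 24 h (up to 6 concentrations, triplicate runs), glutaraldehyde-fixed and methylene blue-stained. Proportion of cells bearing a neurite at least twice the cell's long diameter counted microscopically over ≥200 cells.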

As for `c1cnc(N2CCNCC2)nc1` [Compound 124], the “Number of dead animals/number of test animals” value is given as 0/5 in the data set on mice (Table 6, 300 mg/kg p.o.); 0/5 in the data set on mice (Table 6, 500 mg/kg p.o.); 3/5 in the data set with mice (Table 6, 1000 mg/kg p.o.). The LD50 at 24 h in “Acute toxicity, mouse” lay within 550 to 1000 mg/kg. Moreover, the Number of cells in data set [1] (Table 1 Run No. 3, 0.0 μg/ml (so in the source)) is on record as 4.01 × 10^4 /dish; in data set [1] (Table 1 Run No. 3, 1 μg/ml), 4.10 × 10^4 /dish. For the same compound, the “Number of neurites/cell (mean ± S.D.)” value in data set [1] (Table 1 Run No. 3, 1 μg/ml, control 1.94 ± 0.69, all *P <0.01) is recorded as 2.23 ± 0.82 neurites/cell; in data set [1] (Table 1 Run No. 4, 1 μg/ml, control 1.98 ± 0.74), 2.13 ± 0.72 neurites/cell; in data set [1] (Table 1 Run No. 4, 10 μg/ml, control 1.98 ± 0.74), 2.08 ± 0.69 neurites/cell; in data set [1] (Table 1 Run No. 5, 1 μg/ml, control 1.96 ± 0.64), 1.96 ± 0.54 neurites/cell. In addition, the “Length of neurites (mean ± S.D.)” value in data set [1] (Table 1 Run No. 3, 1 μg/ml, control 45.13 ± 22.71, all *P <0.01) was determined as 66.56 ± 22.16 μm/cell; in data set [1] (Table 1 Run No. 4, 1 μg/ml, control 54.15 ± 33.64) it was 72.19 ± 49.23 μm/cell; in data set [1] (Table 1 Run No. 4, 10 μg/ml, control 54.15 ± 33.64), 71.31 ± 45.67 μm/cell; in data set [1] (Table 1 Run No. 5, 1 μg/ml, control 46.41 ± 33.28), 52.59 ± 32.50 μm/cell. Further, the “Number of cells (mean ± S.E.)” value is reported as 7.22 ± 1.98 × 10^4 /dish in data set [1] (Table 1 Run No. 4, 1 μg/ml, control 5.48 ± 1.38); 5.45 ± 2.61 × 10^4 /dish in data set [1] (Table 1 Run No. 4, 10 μg/ml, control 5.48 ± 1.38); 4.89 ± 0.59 × 10^4 /dish in data set [1] (Table 1 Run No. 5, 1 μg/ml, control 5.30 ± 0.23). For the same compound, the “Cells having neurites with a length at least twice the long diameter of cell/total number of cells” value in data set [2] (Table 3 Run No. 1, 3.6 μM, control 2.2 ± 0.8) was 4.6 ± 0.5%; in data set [2] (Table 3 Run No. 1, 36 μM, control 2.2 ± 0.8) it was 3.8 ± 1.2%.
For the compound `O=c1[nH]ccc2nc(N3CCNCC3)ncc12` [Compound 701], the “Number of dead animals/number of test animals” value is 0/5 with mice (Table 6, 300 mg/kg p.o.); 3/5 with mice (Table 6, 500 mg/kg p.o.); 5/5 in the data set with mice (Table 6, 1000 mg/kg p.o.). Moreover, the LD50 at 24 h in the data set “Acute toxicity, mouse” fell in the range of 300 to 550 mg/kg. Further, the “Cells having neurites with a length at least twice the long diameter of cell/total number of cells” value is 6.8 ± 0.8% in data set [2] (Table 3 Run No. 7, 0.03 mM, control 2.5 ± 0.7); 42.5 ± 1.8% in data set [2] (Table 3 Run No. 7, 0.5 mM, control 2.5 ± 0.7); 57.2 ± 1.2% in data set [2] (Table 3 Run No. 7, 1 mM, control 2.5 ± 0.7); 16.2 ± 1.2% in data set [2] (Table 3 second Run No. 5, 0.1 mM, control 4.5 ± 0.3).
